# Test results reported in patent US20020137929A1, “1 - (3-heterocyclylphenyl) isothiourea, -isourea, -guanidine and -amidine herbicidal agents” (Intellectual Property Department, BASF Aktiengesellschaft, priority 1998, published 2002).
# Columns and labels:
# [1] = test system: SETVI (Foxtail, Green); test: Postemergence herbicidal evaluation; assay type: in vivo, Setaria viridis; details: for SETVI herbicidal rating: postemergence
# Method in brief: (§1)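 Two-week-old seedlings sprayed with compound in 50/50 acetone/water plus 0.5% TWEEN 20, at about 0.0156 to 0.500 kg/ha, nozzle at 40 psi. Kept in greenhouse; rated visually 4-5 weeks after treatment on a 0-9 scale versus control, repeat tests averaged.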
# [2] = test system: ABUTH (Velvetleaf); test: Preemergence herbicidal evaluation; assay type: in vivo, Abutilon theophrasti; details: rated 4-5 weeks after treatment
# Method in brief: (§2)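 In this greenhouse assay, monocot and dicot seeds are planted in soil and treated prior to emergence with an aqueous acetone spray (about 0.0156-0.500 kg/ha). Plants are assessed visually against control on a 0-9 scale after 4-5 weeks.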
# [3] = test system: CASOB (Sicklepod); test: Preemergence herbicidal evaluation; assay type: in vivo, Cassia obtusifolia; details: rated 4-5 weeks after treatment
# Method in brief: as §2
# [4] = test system: ECHCG (Barnyardgrass); test: Postemergence herbicidal evaluation; assay type: in vivo, Echinochloa crus-galli; details: for ECHCG herbicidal rating: postemergence
# Method in brief: as §1
# [5] = test system: CYPIR (Rice Flatsedge); test: Postemergence weed control under flooded paddy conditions; assay type: in vivo, Cyperus iria; details: postemergence weeds, 3-4 weeks after treatment
# Method in brief: (§3)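 Weeds 3 to 5 cm tall and rice seedlings at the 1.5 to 2.5 leaf stage were flooded, with water held 1.5 to 3 cm above the soil. Compounds in 50/50 v/v aqueous/acetone went into the flood water at about 0.0313 to 0.500 kg/ha. Visual 0-9 ratings versus control were made 3 to 4 weeks later.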
# [6] = test system: GLXMAW (Soybean, Williams); test: Postemergence herbicidal evaluation; assay type: in vivo, Glycine max, (L.) Merr. cv Williams; details: for GLXMAW herbicidal rating: postemergence
# Method in brief: as §1
# [7] = test system: ORYSAT (Rice, Tebonnet); test: Postemergence herbicidal evaluation; assay type: in vivo, Oryza sativa, (L.) Tebonnet; details: for ORYSAT herbicidal rating: postemergence
# Method in brief: as §1
# [8] = test system: MOOVA (Monochoria); test: Preemergence weed control under flooded paddy conditions; assay type: in vivo, Monochoria vaginalis; details: rated 3-4 weeks after treatment
# Method in brief: (§4)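 Ratings on a 0-9 visual scale cover stand, vigor, malformation, size, chlorosis and overall appearance relative to a control, taken three to four weeks post-treatment. Application was into flood water over freshly sown silt loam at roughly 0.0313 to 0.500 kg/ha.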
# [9] = test system: SAGPY (Arrowhead (Pygmaea)); test: Postemergence weed control under flooded paddy conditions; assay type: in vivo, Sagittaria pygmaea; details: postemergence weeds, 3-4 weeks after treatment
# Method in brief: as §3
# [10] = test system: SAGPY (Arrowhead (Pygmaea)); test: Preemergence weed control under flooded paddy conditions; assay type: in vivo, Sagittaria pygmaea; details: rated 3-4 weeks after treatment
# Method in brief: as §4
# [11] = test system: ABUTH (Velvetleaf); test: Postemergence herbicidal evaluation; assay type: in vivo, Abutilon theophrasti; details: for ABUTH herbicidal rating: postemergence
# Method in brief: as §1
# [12] = test system: TRZAWR (Wheat, Winter, cv Riband); test: Postemergence herbicidal evaluation; assay type: in vivo, Triticum aestivum; details: for TRZAWR herbicidal rating: postemergence
# Method in brief: as §1
# [13] = test system: AMBEL (Ragweed, Common); test: Postemergence herbicidal evaluation; assay type: in vivo, Ambrosia artemisifolia; details: for AMBEL herbicidal rating: postemergence
# Method in brief: as §1
# [14] = test system: SETVI (Foxtail, Green); test: Preemergence herbicidal evaluation; assay type: in vivo, Setaria viridis; details: rated 4-5 weeks after treatment
# Method in brief: as §2
compound,measurement,setting,value
C=CCN1C(=O)CSC1=Nc1cc(-n2c(=O)cc(C(F)(F)F)n(C)c2=O)c(F)cc1Cl [Compound 27],SETVI herbicidal rating,[1]; rate 0.0158 kg/ha,2.0
same,SETVI herbicidal rating,[1]; rate 0.0315 kg/ha,4.0
same,SETVI herbicidal rating,[1]; rate 0.0630 kg/ha,9.0
same,Preemergence herbicidal rating ABUTH,[2]; rate 0.0156 kg/ha,7.0
same,Preemergence herbicidal rating ABUTH,[2]; rate 0.0313 kg/ha,9.0
same,Preemergence herbicidal rating ABUTH,[2]; rate 0.0625 kg/ha,9.0
same,Preemergence herbicidal rating ABUTH,[2]; rate 0.1250 kg/ha,9.0
same,Preemergence herbicidal rating ABUTH,[2]; rate 0.2500 kg/ha,9.0
same,Preemergence herbicidal rating CASOB,[3]; rate 0.0156 kg/ha,0.0
same,Preemergence herbicidal rating CASOB,[3]; rate 0.0313 kg/ha,0.0
same,Preemergence herbicidal rating CASOB,[3]; rate 0.0625 kg/ha,0.0
same,Preemergence herbicidal rating CASOB,[3]; rate 0.1250 kg/ha,0.0
same,Preemergence herbicidal rating CASOB,[3]; rate 0.2500 kg/ha,0.0
same,ECHCG herbicidal rating,[4]; rate 0.0158 kg/ha,2.0
same,ECHCG herbicidal rating,[4]; rate 0.0315 kg/ha,2.0
same,ECHCG herbicidal rating,[4]; rate 0.0630 kg/ha,1.0
same,Herbicidal rating CYPIR,[5]; rate 0.0313 kg/ha,3.0
same,Herbicidal rating CYPIR,[5]; rate 0.0625 kg/ha,4.0
same,Herbicidal rating CYPIR,[5]; rate 0.1250 kg/ha,6.0
same,Herbicidal rating CYPIR,[5]; rate 0.2500 kg/ha,9.0
same,GLXMAW herbicidal rating,[6]; rate 0.0158 kg/ha,6.0
same,GLXMAW herbicidal rating,[6]; rate 0.0315 kg/ha,6.5
same,GLXMAW herbicidal rating,[6]; rate 0.0630 kg/ha,7.5
same,ORYSAT herbicidal rating,[7]; rate 0.0158 kg/ha,2.0
same,ORYSAT herbicidal rating,[7]; rate 0.0315 kg/ha,2.5
same,ORYSAT herbicidal rating,[7]; rate 0.0630 kg/ha,4.5
same,Herbicidal rating MOOVA,[8]; 0.0313 kg/ha,9.0
same,Herbicidal rating MOOVA,[8]; 0.0625 kg/ha,9.0
same,Herbicidal rating MOOVA,[8]; 0.1250 kg/ha,9.0
same,Herbicidal rating MOOVA,[8]; 0.2500 kg/ha,9.0
same,Herbicidal rating SAGPY,[9]; rate 0.0313 kg/ha,0.0
same,Herbicidal rating SAGPY,[9]; rate 0.0625 kg/ha,0.0
same,Herbicidal rating SAGPY,[9]; rate 0.1250 kg/ha,4.0
same,Herbicidal rating SAGPY,[9]; rate 0.2500 kg/ha,4.0
same,Herbicidal rating SAGPY,[10]; 0.0313 kg/ha,0.0
same,Herbicidal rating SAGPY,[10]; 0.0625 kg/ha,0.0
same,Herbicidal rating SAGPY,[10]; 0.1250 kg/ha,4.0
same,Herbicidal rating SAGPY,[10]; 0.2500 kg/ha,4.0
same,ABUTH herbicidal rating,[11]; rate 0.0158 kg/ha,9.0
same,ABUTH herbicidal rating,[11]; rate 0.0315 kg/ha,9.0
same,ABUTH herbicidal rating,[11]; rate 0.0630 kg/ha,9.0
same,TRZAWR herbicidal rating,[12]; rate 0.0158 kg/ha,3.0
same,TRZAWR herbicidal rating,[12]; rate 0.0315 kg/ha,4.0
same,TRZAWR herbicidal rating,[12]; rate 0.0630 kg/ha,4.5
same,AMBEL herbicidal rating,[13]; rate 0.0158 kg/ha,4.0
same,AMBEL herbicidal rating,[13]; rate 0.0315 kg/ha,5.0
same,AMBEL herbicidal rating,[13]; rate 0.0630 kg/ha,7.0
same,Preemergence herbicidal rating SETVI,[14]; rate 0.0156 kg/ha,0.0
same,Preemergence herbicidal rating SETVI,[14]; rate 0.0313 kg/ha,9.0
same,Preemergence herbicidal rating SETVI,[14]; rate 0.0625 kg/ha,9.0
same,Preemergence herbicidal rating SETVI,[14]; rate 0.1250 kg/ha,9.0
same,Preemergence herbicidal rating SETVI,[14]; rate 0.2500 kg/ha,9.0
"COC(=O)CCN1C(=O)CSC1=Nc1cc(-n2c(=O)cc(C(F)(F)F)n(C)c2=O)c(F)cc1Cl [Compound 28, Methyl 2-{{2-chloro-5-[3,6-dihydro-3-methyl-2,6-dioxo-4-(trifluoromethyl)-1(2H)-pyrimidinyl]-4-fluorophenyl}imino}-4-oxo-3-thiazolidinepropionate]",Postemergence herbicidal rating SETVI,[1]; Rate 0.0158 kg/ha,0.0
same,Postemergence herbicidal rating SETVI,[1]; Rate 0.0315 kg/ha,9.0
same,Postemergence herbicidal rating SETVI,[1]; Rate 0.0630 kg/ha,9.0
same,Preemergence herbicidal rating ABUTH,[2]; rate 0.1250 kg/ha,3.0
same,Preemergence herbicidal rating ABUTH,[2]; rate 0.2500 kg/ha,9.0
same,Preemergence herbicidal rating CASOB,[3]; rate 0.0625 kg/ha,0.0
same,Preemergence herbicidal rating CASOB,[3]; rate 0.1250 kg/ha,0.0
same,Preemergence herbicidal rating CASOB,[3]; rate 0.2500 kg/ha,0.0
same,Postemergence herbicidal rating ECHCG,[4]; Rate 0.0158 kg/ha,0.0
same,Postemergence herbicidal rating ECHCG,[4]; Rate 0.0315 kg/ha,5.0
same,Postemergence herbicidal rating ECHCG,[4]; Rate 0.0630 kg/ha,9.0
same,Herbicidal rating CYPIR,[5]; rate 0.0313 kg/ha,9.0
same,Herbicidal rating CYPIR,[5]; rate 0.0625 kg/ha,9.0
same,Herbicidal rating CYPIR,[5]; rate 0.1250 kg/ha,9.0
same,Herbicidal rating CYPIR,[5]; rate 0.2500 kg/ha,9.0
same,Postemergence herbicidal rating GLXMAW,[6]; Rate 0.0158 kg/ha,6.5
same,Postemergence herbicidal rating GLXMAW,[6]; Rate 0.0315 kg/ha,8.0
same,Postemergence herbicidal rating GLXMAW,[6]; Rate 0.0630 kg/ha,8.5
same,Postemergence herbicidal rating ORYSAT,[7]; Rate 0.0158 kg/ha,2.5
same,Postemergence herbicidal rating ORYSAT,[7]; Rate 0.0315 kg/ha,3.5
same,Postemergence herbicidal rating ORYSAT,[7]; Rate 0.0630 kg/ha,6.0
same,Herbicidal rating MOOVA,[8]; 0.0313 kg/ha,9.0
same,Herbicidal rating MOOVA,[8]; 0.0625 kg/ha,9.0
same,Herbicidal rating MOOVA,[8]; 0.1250 kg/ha,9.0
same,Herbicidal rating MOOVA,[8]; 0.2500 kg/ha,9.0
same,Herbicidal rating SAGPY,[9]; rate 0.0313 kg/ha,0.0
same,Herbicidal rating SAGPY,[9]; rate 0.0625 kg/ha,0.0
same,Herbicidal rating SAGPY,[9]; rate 0.1250 kg/ha,0.0
same,Herbicidal rating SAGPY,[9]; rate 0.2500 kg/ha,0.0
same,Herbicidal rating SAGPY,[10]; 0.0313 kg/ha,0.0
same,Herbicidal rating SAGPY,[10]; 0.0625 kg/ha,0.0
same,Herbicidal rating SAGPY,[10]; 0.1250 kg/ha,0.0
same,Herbicidal rating SAGPY,[10]; 0.2500 kg/ha,0.0
same,Postemergence herbicidal rating ABUTH,[11]; Rate 0.0158 kg/ha,9.0
same,Postemergence herbicidal rating ABUTH,[11]; Rate 0.0315 kg/ha,9.0
same,Postemergence herbicidal rating ABUTH,[11]; Rate 0.0630 kg/ha,9.0
same,Postemergence herbicidal rating TRZAWR,[12]; Rate 0.0158 kg/ha,5.0
same,Postemergence herbicidal rating TRZAWR,[12]; Rate 0.0315 kg/ha,5.0
same,Postemergence herbicidal rating TRZAWR,[12]; Rate 0.0630 kg/ha,6.5
same,Postemergence herbicidal rating AMBEL,[13]; Rate 0.0158 kg/ha,4.0
same,Postemergence herbicidal rating AMBEL,[13]; Rate 0.0315 kg/ha,4.0
same,Postemergence herbicidal rating AMBEL,[13]; Rate 0.0630 kg/ha,9.0
same,Preemergence herbicidal rating SETVI,[14]; rate 0.0625 kg/ha,7.0
same,Preemergence herbicidal rating SETVI,[14]; rate 0.1250 kg/ha,9.0
same,Preemergence herbicidal rating SETVI,[14]; rate 0.2500 kg/ha,9.0
